Measured values as given in patent publication US11291669B2, “Compositions comprising phosphoinositide 3-kinase inhibitors and a second antiproliferative agent” (Karus Therapeutics Limited, priority 2015, dated 2022).
Where two headings read alike, the source gives them in different places.

Tests used:
[1] = Rodent pharmacokinetics, male CD1 mouse, plasma PK; assay type: in vivo; conditions: PO 10 mg/kg vs IV 5 mg/kg, read-out: F (oral bioavailability)
Procedure: Formulation: 10% DMSO, 90% Saline Dosing: 10 mg/kg P.O. and 5 mg/kg I.V. Plasma PK Summary: […]

[2] = Rodent pharmacokinetics, male Balb/c mouse, plasma PK; assay type: in vivo; conditions: for Oral Bioavailability (F): summary table, PO 10 mg/kg
Procedure: Animals in Group 1 were administered intravenously with Example B solution formulation in 20% Propylene Glycol, 50% of PEG 400 and 30% of (20% HPβCD in water) via tail vein at a dose of 3 mg/kg.
Animals in Group 2 were administered with oral solution formulation of Example B in 20% Propylene Glycol, 50% of PEG 400 and 30% of (20% HPβCD in water) at a dose of 10 mg/kg;
Dosing: 10 mg/kg P.O. and 3 mg/kg I.V.
Animals in Group 1 were administered intravenously with Example G solution formulation in 5% NMP, 5% solutol HS-15 in 90% HPIβCD solution (20% HPβCD in RO water) at 3 mg/kg dose.
Animals in Group 2 were administered orally with 10 mg/kg solution formulation of Example G in 5% NMP, 5% solutol HS-15 in 90% HPβCD solution (20% HPβCD in RO water)

SMILES: c1cc(-c2nc(N3CCOCC3)c3oc4ncc(CN5C[C@@H]6C[C@H]5CO6)cc4c3n2)c2cc[nH]c2c1 [Example A, 4-(1H-Indol-4-yl)-6-(morpholin-4-yl)-12-[(1S,4S)-2-oxa-5-azabicyclo[2.2.1]heptan-5-ylmethyl]-8-oxa-3,5,10-triazatricyclo[7.4.0.0^2,7]trideca-1(13),2(7),3,5,9,11-hexaene]
- bioavailability ([1]; mesylate salt): 73.8%

SMILES: c1cc(-c2nc(N3CCOCC3)c3oc4ncc(CN5CCC6(CC5)COC6)cc4c3n2)c2cc[nH]c2c1 [Example B, 4-(1H-Indol-4-yl)-6-(morpholin-4-yl)-12-{2-oxa-7-azaspiro[3.5]nonan-7-ylmethyl}-8-oxa-3,5,10-triazatricyclo[7.4.0.0^2,7]trideca-1(13),2(7),3,5,9,11-hexaene]
- Clearance ([2]; IV, 3 mg/kg, mesylate salt): 1983.6 mL/h/kg
- Oral Bioavailability (F) [2]: 74

SMILES: c1cc(-c2nc(N3CCOCC3)c3oc4ncc(CN5CCC56COC6)cc4c3n2)c2cc[nH]c2c1 [Example G, 4-(1H-indol-4-yl)-6-(morpholin-4-yl)-12-{6-oxa-1-azaspiro[3.3]heptan-1-ylmethyl}-8-oxa-3,5,10-triazatricyclo[7.4.0.0^2,7]trideca-1(13), 2(7), 3,5,9,11-hexaene]
- Oral Bioavailability (F) [2]: 30

SMILES: c1cc(-c2nc(N3CCOCC3)c3oc4ncc(CN5CCCCC5)cc4c3n2)c2cc[nH]c2c1 [Example I in WO2011/021038, reference compound]
- bioavailability ([1]; HCl salt): 29.6%
